Measured values reported in patent US6160004A, “C-10 carbon-substituted artemisinin-like trioxane compounds having antimalarial, antiproliferative and antitumor activities” (priority 1998, dated 2000).
Where two headings read alike, the source gives them in different places.

Assays:
RXF 393 = assay: cells; type: cell-based; conditions: Homo sapiens, RXF 393, renal cancer, 48 h
OVCAR-5 = assay: cells; type: cell-based; conditions: Homo sapiens
OVCAR-8 = assay: cells; type: cell-based; conditions: Homo sapiens
SN12C = assay: NCI 60 cell line panel screening assay (SRB), SN12C; type: cell-based; conditions: Homo sapiens, renal cancer, 48 h
MDA-N = assay: NCI 60 cell line panel screening assay (SRB), MDA-N; type: cell-based; conditions: Homo sapiens, breast cancer, 48 h, read-out: Log10 GI50 (converted)
A498 = assay: cells; type: cell-based; conditions: Homo sapiens, A498, renal cancer, 48 h
RPMI-8226 = assay: NCI 60 cell line panel screening assay (SRB), RPMI-8226; type: cell-based; conditions: Homo sapiens
HS 578T = assay: cells; type: cell-based; conditions: Homo sapiens, HS 578T, breast cancer, 48 h
DU-145 = assay: cells; type: cell-based; conditions: Homo sapiens, DU-145, 48 h
M14 = assay: NCI 60 cell line panel screening assay (SRB), M14; conditions: Homo sapiens, M14, 48 h
BT-549 = assay: cells; type: cell-based; conditions: Homo sapiens, BT-549, breast cancer, 48 h
786-0 = assay: cells; type: cell-based; conditions: Homo sapiens, 786-0, renal cancer, 48 h
NCI-H23 = assay: cells; type: cell-based; conditions: Homo sapiens; NCI-H23, non-small cell lung cancer, 48 h; read-out: Log10 GI50 (converted)
SNB-19 = assay: cells; type: cell-based; conditions: Homo sapiens, SNB-19, CNS cancer, 48 h
MOLT-4 = assay: cells; conditions: Homo sapiens
T-47D = assay: NCI 60 cell line panel screening assay (SRB), T-47D; conditions: Homo sapiens, T47D, 48 h
OVCAR-3 = assay: cells; type: cell-based; conditions: Homo sapiens
HOP-62 = assay: cells; type: cell-based; conditions: Homo sapiens, HOP-62, non-small cell lung cancer, 48 h
PC-3 = assay: cells; type: cell-based; conditions: Homo sapiens, PC-3, prostate cancer, 48 h
UACC-62 = assay: cells; type: cell-based; conditions: Homo sapiens
SW-620 = assay: NCI 60 cell line panel screening assay (SRB), SW-620; type: cell-based; conditions: Homo sapiens
MCF7 = assay: cells; type: cell-based; conditions: Homo sapiens; MCF7, breast cancer, 48 h; read-out: Log10 LC50 (converted)
TK-10 = assay: cells; type: cell-based; conditions: Homo sapiens, TK-10, renal cancer, 48 h
HCT-15 = assay: cells; type: cell-based; conditions: Homo sapiens, HCT-15, colon cancer, 48 h
CCRF-CEM = assay: cells; type: cell-based; conditions: Homo sapiens, 48 h
K-562 = assay: cells; type: cell-based; conditions: Homo sapiens
SK-OV-3 = assay: cells; type: cell-based; conditions: Homo sapiens
UACC-257 = assay: cells; type: cell-based; conditions: Homo sapiens, UACC-257, 48 h
U251 = assay: cells; type: cell-based; conditions: Homo sapiens, U-251, U251, CNS cancer, 48 h
[1] = read-out: Log10 GI50 (converted)
[2] = read-out: Log10 LC50 (converted)

CC1CCC2C(C)C(CC(=O)c3cccc(C(=O)CC4OC5OC6(C)CCC7C(C)CCC(C4C)C57OO6)c3)OC3OC4(C)CCC1C32OO4 (stereo not drawn) [Dimer 39]
> 100 µM: GI50 (RXF 393; [1]) | CC50 (RXF 393; [2]) | IC (TGI) (RXF 393; read-out: Log10 TGI) | IC (TGI) (OVCAR-5; OVCAR-5, 48 h, read-out: Log10 TGI) | CC50 (OVCAR-5; OVCAR-5, ovarian cancer, 48 h, read-out: Log10 LC50 (converted)) | IC (TGI) (OVCAR-8; OVCAR-8, 48 h, read-out: Log10 TGI) | GI50 (OVCAR-8; OVCAR-8, ovarian cancer, 48 h, read-out: Log10 GI50 (converted)) | CC50 (OVCAR-8; OVCAR-8, ovarian cancer, 48 h, read-out: Log10 LC50 (converted)) | GI50 (SN12C; [1]) | CC50 (SN12C; [2]) | IC (TGI) (SN12C; read-out: Log10 TGI) | GI50 (MDA-N) | CC50 (A498; [2]) | IC (TGI) (A498; read-out: Log10 TGI) | CC50 (RPMI-8226; RPMI-8226, 48 h, read-out: Log10 LC50 (converted)) | GI50 (RPMI-8226; RPMI-8226, leukemia, 48 h, read-out: Log10 GI50 (converted)) | IC (TGI) (RPMI-8226; RPMI-8226, leukemia, 48 h, read-out: Log10 TGI) | GI50 (HS 578T; [1]) | CC50 (HS 578T; [2]) | GI50 (DU-145; [1]) | CC50 (DU-145; [2]) | IC (TGI) (DU-145; read-out: Log10 TGI) | GI50 (M14; [1]) | CC50 (M14; [2]) | IC (TGI) (M14; read-out: Log10 TGI) | GI50 (BT-549; [1]) | CC50 (BT-549; [2]) | GI50 (786-0; [1]) | CC50 (786-0; [2]) | IC (TGI) (786-0; read-out: Log10 TGI) | GI50 (NCI-H23) | GI50 (SNB-19; [1]) | CC50 (SNB-19; [2]) | IC (TGI) (SNB-19; read-out: Log10 TGI) | CC50 (MOLT-4; MOLT-4, 48 h, read-out: Log10 LC50 (converted)) | IC (TGI) (MOLT-4; MOLT-4, 48 h, read-out: Log10 TGI) | CC50 (MOLT-4; MOLT-4, read-out: concentration for cytotoxicity (PG -50)) | IC50 (MOLT-4; MOLT-4, read-out: concentration for primary growth inhibition (PG +50)) | GI50 (T-47D; [1]) | CC50 (T-47D; [2]) | IC (TGI) (OVCAR-3; OVCAR-3, 48 h, read-out: Log10 TGI) | GI50 (OVCAR-3; OVCAR-3, ovarian cancer, 48 h, read-out: Log10 GI50 (converted)) | CC50 (OVCAR-3; OVCAR-3, ovarian cancer, 48 h, read-out: Log10 LC50 (converted)) | GI50 (HOP-62; [1]) | LC50 (HOP-62; [2]) | GI50 (PC-3; [1]) | LC50 (PC-3; [2]) | IC (TGI) (UACC-62; UACC-62, 48 h, read-out: Log10 TGI) | GI50 (UACC-62; UACC-62, melanoma, 48 h, read-out: Log10 GI50 (converted)) | LC50 (UACC-62; UACC-62, melanoma, 48 h, read-out: Log10 LC50 (converted)) | GI50 (SW-620; SW-620, 48 h, read-out: Log10 GI50 (converted)) | CC50 (SW-620; SW-620, colon cancer, 48 h, read-out: Log10 LC50 (converted)) | IC (TGI) (SW-620; SW-620, colon cancer, 48 h, read-out: Log10 TGI) | CC50 (MCF7) | GI50 (TK-10; [1]) | CC50 (TK-10; [2]) | IC (TGI) (TK-10; read-out: Log10 TGI) | GI50 (HCT-15; [1]) | CC50 (HCT-15; [2]) | GI50 (CCRF-CEM; [1]) | CC50 (CCRF-CEM; [2]) | IC (TGI) (CCRF-CEM; leukemia, read-out: Log10 TGI) | CC50 (K-562; K562, 48 h, read-out: Log10 LC50 (converted)) | GI50 (K-562; K562, K-562, leukemia, 48 h, read-out: Log10 GI50 (converted)) | IC (TGI) (SK-OV-3; SK-OV-3, 48 h, read-out: Log10 TGI) | GI50 (SK-OV-3; SK-OV-3, ovarian cancer, 48 h, read-out: Log10 GI50 (converted)) | CC50 (SK-OV-3; SK-OV-3, ovarian cancer, 48 h, read-out: Log10 LC50 (converted)) | IC (TGI) (UACC-257; read-out: Log10 TGI) | GI50 (UACC-257; [1]) | CC50 (UACC-257; [2]) | GI50 (U251; [1]) | CC50 (U251; [2])
